Measurements reported in PubChem BioAssay AID2116 (The Scripps Research Institute Molecular Screening Center, 2009).
pEC50: −log10 of the molar value.

Target: Mucolipin-3 (Homo sapiens) (UniProt Q8TDD5)
Assay: activators of mucolipin-3 and mucolipin-2 – cell-based, patch clamp, Fura-2 profiling panel (AID 2116)
Details: HEK293 cells expressing TRPML3-YFP, TRPML3 Dose Response

Mucolipin-3 (Homo sapiens), sequence (Q8TDD5 whole entry, looked up): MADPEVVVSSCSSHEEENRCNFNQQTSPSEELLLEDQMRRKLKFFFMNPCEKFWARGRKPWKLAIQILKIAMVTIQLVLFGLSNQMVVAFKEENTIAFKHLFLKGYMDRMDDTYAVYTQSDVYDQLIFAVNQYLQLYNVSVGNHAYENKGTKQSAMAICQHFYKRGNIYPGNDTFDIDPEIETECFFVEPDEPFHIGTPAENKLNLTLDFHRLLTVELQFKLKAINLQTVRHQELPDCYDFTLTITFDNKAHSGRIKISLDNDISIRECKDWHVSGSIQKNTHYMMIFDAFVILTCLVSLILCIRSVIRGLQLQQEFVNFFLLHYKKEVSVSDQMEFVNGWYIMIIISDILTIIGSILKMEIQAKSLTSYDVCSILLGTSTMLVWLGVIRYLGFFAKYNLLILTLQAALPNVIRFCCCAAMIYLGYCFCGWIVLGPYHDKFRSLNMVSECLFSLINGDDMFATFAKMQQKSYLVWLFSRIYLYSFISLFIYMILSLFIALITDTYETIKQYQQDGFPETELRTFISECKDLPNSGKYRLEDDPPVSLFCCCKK

pEC50 | SMILES
5.96 | O=S(=O)(Nc1ccccc1N1CCOCC1)c1ccc(Cl)s1
6.35 | O=S(=O)(NC1CCCCC1N1CCOCC1)c1ccc(Cl)cc1 (configuration not stated)
